Measured values as given in publication PMC5045383 (Oncotarget, 2016).

Assays:
PF-382 (FLT3-wt) = assay: cells; assay type: cell-based; details: 72 hours
Method: (§1) Cells were grown in 96-well culture plates (3000/well). […] Cell proliferation was determined after 72 hours drug treatment. […] Cell viability was measured with the CellTiter–Glo assay (Promega, USA), according to the manufacturer's instructions, and luminescence was measured in a multi-label reader (Envision, PerkinElmer, USA). […] GI50 values were calculated using Prism 5.0 (GraphPad Software, San Diego, CA).

SKM-1 (FLT3-wt) = assay: Cell proliferation assay (CellTiter-Glo); assay type: cell-based, human; details: 72 hours
Method: as §1

HL-60 (FLT3-wt) = assay: Cell proliferation assay (CellTiter-Glo); assay type: cell-based, human; details: 72 hours
Method: as §1

OCI-AML-3 (FLT3-wt) = assay: Cell proliferation assay (CellTiter-Glo); assay type: cell-based, human; details: 72 hours
Method: (§2) The human AML cell lines MV4-11, U937, OCI-AML-3 were purchased from the American Type Culture Collection (ATCC) (Manassas, VA, USA). The FLT3-ITD-expressing lines, MOLM-13, MOLM-14, were provided by Dr. Scott Armstrong, Dana Farber Cancer Institute (DFCI), Boston, MA. The wt FLT3-expressing AML line, NB4 (KRAS A18D), was obtained from Dr. Gary Gilliland. […] MV4-11 was cultured in IDMEM media (Corning, USA) with 10% FBS and supplemented with 2% L-glutamine and 1% penicillin/streptomycin. OCI-AML-3 was cultured in α-MEM media (Corning, USA) with 10% FBS and supplemented with 2% L-glutamine and 1% penicillin/streptomycin. All cell lines were maintained in culture media at 37°C with 5% CO2.
as §1

U937 (FLT3-wt) = assay: Cell proliferation assay (CellTiter-Glo); assay type: cell-based, human
Method: as §2, §1

MV4-11 (FLT3-ITD) = assay: Cell proliferation assay (CellTiter-Glo); assay type: cell-based, human
Method: as §2, §1

NB4 (FLT3-wt) = assay: Cell proliferation assay (CellTiter-Glo); assay type: cell-based, human; details: 72 hours
Method: as §2, §1

MOLM-13 (FLT3-ITD/wt) = assay: Cell proliferation assay (CellTiter-Glo); assay type: cell-based, human
Method: as §2, §1

MOLM-14 (FLT3-ITD/wt) = assay: Cell proliferation assay (CellTiter-Glo); assay type: cell-based, human
Method: as §2, §1

MOLM14 = assay: Cell cycle analysis (PI, flow cytometry); assay type: cell-based, human; details: MOLM14, 1 μM, 24 hours
Method: (§3) The cells were fixed in 70% cold ethanol and incubated at −20°C overnight, then stained with PI/RNase staining buffer (BD Pharmingen). Flow cytometry was performed using a FACS Calibur (BD), and results were analyzed by ModFit software.

MV4-11 [1] = assay: Cell cycle analysis (PI, flow cytometry); assay type: cell-based, human; details: MV4-11, 1 μM, 24 hours
Method: as §3

MOLM-14 = assay: Combination study TCS359 + MK2206; assay type: cell-based, human; details: TCS359 3.3 μM, MK2206 0.12 μM, alone or combined, 72 hours
Method: (§4) The FLT3-ITD-expressing lines MOLM-13, MOLM14 and MV4-11 were grown in 96-well culture plates (3000/well), respectively. Combination treatment with the FLT3 kinase inhibitor, TCS359, and with the Akt inhibitor, MK2206, was performed. Cell proliferation was determined after treatment with compounds for 72 hours. Cell viability was measured using the CellTiter–Glo assay (Promega, USA), data were normalized to control groups (DMSO) and represented by the mean of three independent measurements with standard error < 20%. CI index was calculated by Calcusyn software (Biosoft, version 2.1), using the Chou-Talalay method.

MOLM-13 = assay: Combination study TCS359 + MK2206; assay type: cell-based, human; details: TCS359 0.12 μM, MK2206 0.36 μM, alone or combined, 72 hours
Method: as §4

MV4-11 [2] = assay: Combination study TCS359 + MK2206; assay type: cell-based, human; details: TCS359 0.12 μM, MK2206 0.12 μM, alone or combined, 72 hours
Method: as §4

MOLM14, MV4-11 cells = assay: Apoptosis effect examination (PARP, Caspase-3 immunoblot); assay type: cell-based, human; details: at 1 μM, 24 hours
Source text: Cells were then washed in PBS and lysed in cell lysis buffer. PARP, Caspase-3, GAPDH antibodies (Cell signaling Technology) were used for immunoblotting.

[3] = tested on: FLT3-ITD mediated signaling in MOLM14 and MV4-11 cell lines; assay: Signaling pathway effect examination (immunoblot); assay type: cell-based, human; details: 1 μM, 4 hours
Source text: Cells were then washed in PBS and lysed in cell lysis buffer. FLT3, Phospho-FLT3 (Tyr589/591), AKT, Phospho-AKT Ser473, Phospho-AKT Thr308, GSK-3β, Phospho-GSK-3β (Ser9), Phospho-FoxO1 (Thr24), FoxO1, PRAS40, Phospho-PRAS40 (Thr246), STAT5, Phospho-STAT5 (Tyr694), NF-ΚB-P65, Phospho-NF-ΚB-P65 (Ser536), P70S6K, Phospho-P70S6K Thr389, 4EBP1, Phospho-4EBP1 (Thr37/46), ERK, Phospho-p44/42MAPK (Erk1/2) (Thr202/Tyr204), C-Myc and GAPDH antibodies (Cell Signaling Technology) were used for immunoblotting.

[4] = tested on: FLT3-ITD/FLT3 wt-expressing MOLM13 and MOLM14 cells
Method: as §1

[5] = Homo sapiens, MV4-11 (FLT3-ITD), 72 hours, Table 1
[6] = Homo sapiens, MOLM-13 (FLT3-ITD/wt), 72 hours, Table 1
[7] = Homo sapiens, MOLM-14 (FLT3-ITD/wt), 72 hours, Table 1
[8] = Homo sapiens, read-out: Relative activity(%)
[9] = MV4-11 (FLT3-ITD), 72 hours, Table 1
[10] = MOLM-13 (FLT3-ITD/wt), 72 hours, Table 1

| Structure (SMILES) | GI50 (SKM-1 (FLT3-wt); Homo sapiens) [nM] | GI50 (HL-60 (FLT3-wt); Homo sapiens) [nM] | GI50 (OCI-AML-3 (FLT3-wt); Homo sapiens) [nM] | GI50 (U937 (FLT3-wt); Homo sapiens, U-937, 72 hours) [nM] | GI50 (MV4-11 (FLT3-ITD); [5]) [nM] | GI50 (MOLM-13 (FLT3-ITD/wt); [6]) [nM] | GI50 (MOLM-14 (FLT3-ITD/wt); [7]) [nM] | GI50 (PF-382 (FLT3-wt); Homo sapiens) [nM] | GI50 (NB4 (FLT3-wt); Homo sapiens) [nM] | %G0–G1 (MOLM14) [%] | %G2–M (MOLM14) [%] | %S (MOLM14) [%] | %G0–G1 (MV4-11 [1]) [%] | %G2–M (MV4-11 [1]) [%] | %S (MV4-11 [1]) [%] | apoptosis induction (MOLM14, MV4-11 cells) | GI50 (PF-382 (FLT3-wt)) [nM] | GI50 (SKM-1 (FLT3-wt)) [nM] | GI50 (HL-60 (FLT3-wt)) [nM] | GI50 (OCI-AML-3 (FLT3-wt)) [nM] | also measured |
| --- | --- | --- | --- | --- | --- | --- | --- | --- | --- | --- | --- | --- | --- | --- | --- | --- | --- | --- | --- | --- | --- |
| NC1(c2ccc(-c3nc4ccn5c(=O)[nH]nc5c4cc3-c3ccccc3)cc2)CCC1 [MK2206] | 4600 | 160 | 1400 | 7200 | 5200 | 100 | 320 | 610 | 210 | 63.9 | 7.3 | 28.81 | 64.92 | 7.69 | 27.39 | did not induce apoptosis |  |  |  |  | activity at 0.12 µM (MOLM-14; [8]): 65.5%; activity at 0.36 µM (MOLM-13; [8]): 59.3%; activity at 0.12 µM (MV4-11 [2]; [8]): 88.6%; effect on FLT3 signaling pathway (pFLT3, pSTAT5, c-MYC) [3]: did not affect this signaling pathway |
| NC1(Cc2ccc(Cl)cc2)CCN(c2ncnc3[nH]ccc23)CC1 [CCT128930] |  |  |  |  |  |  |  |  |  |  |  |  |  |  |  |  | 1300 | 4300 | 1500 | 2200 | GI50 (U937 (FLT3-wt); 72 hours): 4100 nM; GI50 (MV4-11 (FLT3-ITD); [9]): 1000 nM; GI50 (NB4 (FLT3-wt)): 2500 nM; GI50 (MOLM-13 (FLT3-ITD/wt); [10]): 650 nM; GI50 (MOLM-14 (FLT3-ITD/wt); MOLM-14 (FLT3-ITD/wt), 72 hours, Table 1): 1100 nM |
| NC1(C(=O)N[C@@H](CCO)c2ccc(Cl)cc2)CCN(c2ncnc3[nH]ccc23)CC1 [AZD5363] | > 10000 | 370 | 1200 | 610 | 670 | 160 | 500 | 480 | 930 |  |  |  |  |  |  |  |  |  |  |  |  |
| COc1ccc(C(=O)Nc2sc3c(c2C(N)=O)CCCC3)cc1OC [TCS359] |  |  |  |  |  |  |  |  |  | 55.04 | 9.08 | 35.88 | 73.62 | 2.57 | 23.81 | did not induce apoptosis | > 10000 | > 10000 | 540 | > 10000 | Relative activity(%) (MOLM-14): 68.4%; Relative activity(%) (MOLM-13): 69.7%; Relative activity(%) (MV4-11 [2]): 98.9%; fold loss of activity with FLT3 ligand stimulation [4]: 6-15 fold; GI50 (U937 (FLT3-wt); 72 hours): > 10000 nM; GI50 (MV4-11 (FLT3-ITD); [9]): 680 nM; GI50 (MV4-11 (FLT3-ITD); MV4-11+FL(10 ng/mL)): 1400 nM; GI50 (MV4-11 (FLT3-ITD); MV4-11, no FLT3 ligand, Table 3): 490 nM; GI50 (NB4 (FLT3-wt)): > 10000 nM; GI50 (MOLM-13 (FLT3-ITD/wt); [10]): 560 nM; GI50 (MOLM-13 (FLT3-ITD/wt); MOLM-13+FL(1 ng/mL)): > 10000 nM; GI50 (MOLM-13 (FLT3-ITD/wt); MOLM-13+FL(5 ng/mL)): > 10000 nM; GI50 (MOLM-13 (FLT3-ITD/wt); MOLM-13+FL(10 ng/mL)): > 10000 nM; GI50 (MOLM-13 (FLT3-ITD/wt); MOLM-13, no FLT3 ligand, Table 3): 420 nM; GI50 (MOLM-14 (FLT3-ITD/wt); MOLM-14+FL(1 ng/mL)): > 10000 nM; GI50 (MOLM-14 (FLT3-ITD/wt); MOLM-14+FL(5 ng/mL)): > 10000 nM; GI50 (MOLM-14 (FLT3-ITD/wt); MOLM-14+FL(10 ng/mL)): > 10000 nM |

Continued, in another order:

| GI50 (SKM-1 (FLT3-wt); Homo sapiens) [nM] | GI50 (HL-60 (FLT3-wt); Homo sapiens) [nM] | GI50 (OCI-AML-3 (FLT3-wt); Homo sapiens) [nM] | GI50 (U937 (FLT3-wt); Homo sapiens, U-937, 72 hours) [nM] | GI50 (MV4-11 (FLT3-ITD); [5]) [nM] | GI50 (MOLM-13 (FLT3-ITD/wt); [6]) [nM] | GI50 (MOLM-14 (FLT3-ITD/wt); [7]) [nM] | Structure (SMILES) | GI50 (PF-382 (FLT3-wt); Homo sapiens) [nM] | GI50 (NB4 (FLT3-wt); Homo sapiens) [nM] | %G0–G1 (MOLM14) [%] | %G2–M (MOLM14) [%] | %S (MOLM14) [%] | %G0–G1 (MV4-11 [1]) [%] | %G2–M (MV4-11 [1]) [%] | %S (MV4-11 [1]) [%] | apoptosis induction (MOLM14, MV4-11 cells) | GI50 (PF-382 (FLT3-wt)) [nM] | GI50 (SKM-1 (FLT3-wt)) [nM] | GI50 (HL-60 (FLT3-wt)) [nM] | GI50 (OCI-AML-3 (FLT3-wt)) [nM] | also measured |
| --- | --- | --- | --- | --- | --- | --- | --- | --- | --- | --- | --- | --- | --- | --- | --- | --- | --- | --- | --- | --- | --- |
| > 10000 | 160 | > 10000 | 5100 | 5200 | 280 | 540 | CCn1c(-c2nonc2N)nc2c(C#CC(C)(C)O)ncc(OC[C@H]3CCCNC3)c21 [GSK690693] | 240 | 220 | 54.52 | 9.78 | 35.7 | 60.48 | 7 | 32.52 |  |  |  |  |  |  |
| > 10000 | 310 | 1100 | 590 | 2100 | 290 | 850 | CC(C)NC[C@@H](C(=O)N1CCN(c2ncnc3c2[C@H](C)C[C@H]3O)CC1)c1ccc(Cl)cc1 [GDC0068] | 440 | 5900 |  |  |  |  |  |  |  |  |  |  |  |  |
